Data published in patent US7585896B2, “Composition for the prevention and treatment of kidney dysfunctions and diseases” (Sigma-Tau Industrie Farmaceutiche Riunite S.p.A., priority 1999, dated 2009).

How the values were obtained:
[1] = tested on: glycerol-induced renal insufficiency in male Sprague-Dawley rats; test: Protective activity against glycerol-induced renal insufficiency; type: in vivo; conditions: for Urea (plasma): glycerol-injected rats, 24 h after injection; for effect on the elevated plasma urea and creatinine concentrations: glycerol-induced acute renal insufficiency, oral or intraperitoneal, result in words
[2] = tested on: ochratoxin A-induced renal toxic lesions in Wistar rats; test: Protective activity against renal abnormalities induced by ochratoxin A; type: in vivo; conditions: for ALP (alkaline phosphatase) / GGT (gamma-glutamyl transferase) / NAG (N-acetyl-β-D-glucosaminidase): 24-hour urine, 300 mg/kg (of each drug) oral for 10 days with ochratoxin A; for effect on enzymuria induced by ochratoxin and serum creatinine levels: ochratoxin-intoxicated rats, result in words
Source text: In experimental animals, particularly rats, it is possible to reproduce tubulo-interstitial nephropathy similar to that encountered in man and known as Balkans Endemic Nephropathy (BEN) by means of the administration of a mycotoxin produced by Aspergillus ochraceus which is present as a contaminant in various foodstuffs and is known as ochratoxin A (Kniper-Goodman T., Scott P., Biomed. Environ. Sci., 2, 179, 1989).
The administration of small amounts of this toxin causes a series of renal abnormalities in the rat with a reduction in glomerular filtration and lesions at the level of the proximal tubule to such an extent as to cause renal atrophy.
In this test a batch of Wistar rats with a mean body weight of 200 g was divided into various groups, one of which served as a control group, while another was administered […] of ochratoxin (Sigma Chemical, St. Louis, Mo. U.S.A.) by gastric probe every 48 hours for a period of ten days. The remaining groups, in addition to ochratoxin, also received oral administrations of 300 mg/ks of acetyl L-carnitine or 300 mg/kg of propionyl L-carnitine or a combination of the two carnitines for the entire 10-day treatment period.
At the end of treatment, the animals were placed in metabolic cages and 24-hour urine was submitted to spectrophotometric evaluation of the enzymes alkaline phosphatase (ALP), gamma-glutamyl transferase (GGT) and N-acetyl-β-D-glucosaminidase (NAG) as indicators of renal damage.
Serum creatinine concentrations were also measured.

isolated perfused kidney = test: Protective activity against lithium-induced nephrotoxicity in the isolated perfused kidney (histamine release); set-up: species or system Wistar rats; conditions: for Percentage changes vs controls in histamine released: lithium 6 mEq/L after 20 min perfusion of carnitine 200 mM/L; for effect on histamine release induced by the renal toxic action of lithium: isolated perfused kidney, result in words
Source text: This test was used to assess the protective activity of the combination of acetyl L-carnitine plus propionyl L-carnitine against the well-known nephrotoxic activity of lithium. Lithium presents a particular tropism at the renal tubule level and can cause tubular necrosis.
In this test Wistar rates with a mean body weight of 400 g were anaesthetised and nephrectomised. The excised kidneys were perfused according to the technique described by Shureck (Shureck H. J., Pflügers Arch., 354, 1975) as modified by Maach (Maach T., Kidney Int., 30, 142, 1986; Maach T., Ann. J. Physiol., 238, 1980).
Immediately after isolation of the kidney, the renal artery and outflow vein were catheterised and the resulting preparation was placed in a chamber containing a Krebs solution heated to 37° C. The oxygenised Krebs solution was pumped into the system by means of a pulsatile pump at a rate of 0.8 ml/min/g.
Lithium was administered via the perfusion pump at a dose of 6 mEq/L after perfusion during the previous 20 minutes of a solution containing acetyl L-carnitine or propionyl L-carnitine (200 mM/L) or a combination of the two compounds.
After the lithium infusion, the venous perfusion fluid was collected at five-minute intervals for fifteen minutes and its histamine content was measured with a fluorometric method (Hakanson R., Anal. Biochem., 47, 356, 1972). Histamine release is considered a marker of the severity of tubular damage (Bertelli A., Drugs Exptl. Clin Res., 7, 53, 1981).

[3] = 5 minutes post-lithium-infusion
[4] = 10 minutes post-lithium-infusion
[5] = 15 minutes post-lithium-infusion

SMILES	Urea (plasma) ([1]; 100 mg/kg (of each drug) i.p.)	Urea (plasma) ([1]; 100 mg/kg (of each drug) oral)	Urea (plasma) ([1]; 500 mg/kg (of each drug) i.p.)	Urea (plasma) ([1]; 500 mg/kg (of each drug) oral)	effect on the elevated plasma urea and creatinine concentrations [1]	ALP (alkaline phosphatase) [2]	GGT (gamma-glutamyl transferase) [2]	NAG (N-acetyl-β-D-glucosaminidase) [2]	effect on enzymuria induced by ochratoxin and serum creatinine levels [2]	Percentage changes vs controls in histamine released (isolated perfused kidney; [3])	Percentage changes vs controls in histamine released (isolated perfused kidney; [4])	Percentage changes vs controls in histamine released (isolated perfused kidney; [5])	effect on histamine release induced by the renal toxic action of lithium (isolated perfused kidney)
CC(=O)O[C@H](CC(=O)[O-])C[N+](C)(C)C [ACL, Acetyl L-carnitine]	104.7 ± 12.4 mg/100 ml	110.9 ± 21.6 mg/100 ml	98.5 ± 10.6 mg/100 ml	105.4 ± 29.4 mg/100 ml	only slight changes	8.8 ± 1.1 U/I	17.2 ± 1.9 U/I	48.8 ± 5.1 U/I	reduced	55.8 ± 6.1%	36.8 ± 3.1%	12.5 ± 1.5%	reduced
CCC(=O)O[C@H](CC(=O)[O-])C[N+](C)(C)C [PC, Propionyl L-carnitine]	100.5 ± 9.8 mg/100 ml	107.4 ± 30.2 mg/100 ml	80.2 ± 6.6 mg/100 ml	90.2 ± 31.4 mg/100 ml	only slight changes	7.5 ± 0.9 U/I	16.5 ± 2.2 U/I	44.2 ± 4.5 U/I	reduced	45.8 ± 4.5%	30.4 ± 2.9%	10.4 ± 0.9%	reduced
